Assay results reported in patent US11834430B2, “Compounds useful as inhibitors of isoprenylcysteine carboxyl methyltransferase” (AGENCY FOR SCIENCE, TECHNOLOGY AND RESEARCH, priority 2017, dated 2023).
“And” between values parts separate entries of the source, which are not always exact repeats. Identical values can stand only once.

Legend:
human ICMT = human ICMT (Homo sapiens (Human), UniProt O60725); experiment: ICMT biochemical assay (Methyltransferase-Glo); details: ICMT membrane extract from Sf-9 cells; 30 min preincubation, 90 min reaction
MIAPaCa-2 cells = experiment: Cell proliferation assay (CellTiter-Glo); assay type: cell-based; details: Homo sapiens, MIA PaCa-2, 72 h, 3 days
Description: Cell proliferation assay was performed using CellTiter-Glo Luminescent Cell Viability Assay (Promega) following manufacturer's instructions. The MIAPaCa-2 cells (ATCC) were treated with compounds that were serial diluted in the media (DMEM). Plates were incubated for 3 days at 37° C. in 5% CO2. After 3 days, an equal volume of Cell Titer Glo reagent was added. Plates were rocked on a rotator for 2 hours. 100 μL of each well was transferred to a 96-well opaque plate, and luminescence emitted was measured with the Tecan Safire II.

[1] = tested on: Prelamin A in MIAPaCa-2 cells; experiment: Prelamin A accumulation assay (Western blot); assay type: cell-based; details: various concentrations, 48 hours
Description: The MIAPaCa-2 cells were seeded in 6-well plates. After seeding for 24 hours, the cells were treated with either DMSO or varying concentration of the compound and incubated for 48 hours. The cells were trypsinized and the lysate was extracted with RIPA buffer (Santa Cruz). The total protein concentration of lysate is quantified using the standard Bradford assay (Biorad protein assay, microplate standard assay).
Western blot analysis was performed using antibody against Prelamin A in MIAPaCa cells treated with compound at various concentration for 48 hours. 15.0 μg of cell lysate was run on a SDS-PAGE and then transferred to nitrocellulose membrane. The membrane was then incubated in blocking buffer [PBS (phosphate buffered saline) with 0.1% Tween 20 and 5% dry milk] at room temperature for 1 hour, followed by incubation with Prelamin A antibody (rat monoclonal antibody) at 1:2500 dilution in PBS, 0.1% Tween 20 and 5% dry milk overnight at 4° C., followed by three washes (15 minutes each wash) in PBS, 0.1% Tween 20 on the next day.
The nitrocellulose membrane was then incubated with secondary antibody solution at room temperature for 1 hour, washed three times before developed with enhanced Chemiluminescence (ECL) mixture (Amersham, Aylesbury, United Kingdom), incubated for 5 minutes and exposed using Fluor Chem E System instrument (Protein Simple).

Sequence of human ICMT (O60725 whole entry): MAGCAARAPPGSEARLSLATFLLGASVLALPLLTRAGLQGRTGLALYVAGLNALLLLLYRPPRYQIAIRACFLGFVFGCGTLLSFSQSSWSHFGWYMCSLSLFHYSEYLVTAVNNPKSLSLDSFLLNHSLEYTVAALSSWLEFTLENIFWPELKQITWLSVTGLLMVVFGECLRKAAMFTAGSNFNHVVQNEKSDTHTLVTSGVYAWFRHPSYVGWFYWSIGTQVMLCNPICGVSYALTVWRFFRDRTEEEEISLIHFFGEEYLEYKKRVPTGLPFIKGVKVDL

Compound: Cn1nccc1-c1cc(OCCOc2ccc(C#N)cn2)ccn1 [Compound 71, 6-(2-((2-(1-methyl-1H-pyrazol-5-yl)pyridin-4-yl)oxy)ethoxy)nicotinonitrile]
- IC50 (human ICMT): 44 nM and 41 nM
- GI50 (MIAPaCa-2 cells): 12700 nM
- Prelamin A accumulation (Western blot) [1]: Prelamin A accumulation
